The text below walks through data of patent US20190290675A1, “GLYCAN POLYMERS AND RELATED METHODS THEREOF” (priority 2016, published 2019).

What all share (experiment): single strain growth assay, enzymatically synthesized glycans and parent sugars
Holding throughout (type): cell-based
Conditions in all cases: 0.5% w/v, 37° C., 18-48 hours, anaerobic; OD600 blanked against no glycan or sugar

For assay [1], the system named is Dorea formicigenerans ATCC 27755 “DFO.36”.
Procedure: (§1) An in vitro assay was performed to assess the ability of various bacterial strains, including commensals and pathogens of the gastrointestinal tract, to utilize enzymatically synthesized glycans (i.e., glycan polymers) and the sugars from which they were derived as growth substrates. The assay was designed to determine if enzymatically synthesized glycans differ from the sugars from which they are derived in how well they support growth of potentially beneficial or harmful bacterial members of the human microbiome. Bacterial strains were handled at all steps in an anaerobic chamber (AS-580, Anaerobe Systems) featuring a palladium catalyst. The chamber was initially made anaerobic by purging with an anaerobic gas mixture of 5% hydrogen, 5% carbon dioxide and 90% nitrogen and subsequently maintained in an anaerobic state using this same anaerobic gas mixture. Anaerobicity of the chamber was confirmed daily using Oxoid anaerobic indicator strips that change color in the presence of oxygen. All culture media, assay plates, other reagents and plastic consumables were pre-reduced in the anaerobic chamber for at least 24-48 hours prior to contact with bacteria. […] Bacterial isolates were obtained from the American Type Culture Collection (ATCC) and Leibniz Institute DSMZ-German Institute of Microorganisms and Cell Cultures (DSMZ). […] Inocula were prepared by determining the optical density of each culture at 600 nM (OD600) in a Costar 3370 polystyrene 96-well flat-bottom assay plate using a Biotek Synergy 2 plate reader with Gen5 2.0 All-In-One Microplate Reader Software according to manufacturer's protocol, and diluting the cells to OD600 0.01 final in defined and semi-defined media that were prepared without sugars. […]
Assay [2] has as its system Clostridium scindens ATCC 35704 “CSC.32”.
Procedure: as §1
The test system of assay [3] is Parabacteroides distasonis ATCC 8503 “PDI.6”.
Procedure: as §1
Assay [4] relates to Bacteroides thetaiotaomicron ATCC 29741 “BTH.8”.
Procedure: as §1
Assay [5] relates to Dorea longicatena DSM 13814 “DLO.76”.
Procedure: as §1
Assay [6] has as its system Blautia hansenii ATCC 27752 “BHA.20”.
Procedure: An in vitro assay was performed to assess the ability of various bacterial strains, including commensals and pathogens of the gastrointestinal tract, to utilize enzymatically synthesized glycans (i.e., glycan polymers) and the sugars from which they were derived as growth substrates. The assay was designed to determine if enzymatically synthesized glycans differ from the sugars from which they are derived in how well they support growth of potentially beneficial or harmful bacterial members of the human microbiome. Bacterial strains were handled at all steps in an anaerobic chamber (AS-580, Anaerobe Systems) featuring a palladium catalyst. The chamber was initially made anaerobic by purging with an anaerobic gas mixture of 5% hydrogen, 5% carbon dioxide and 90% nitrogen and subsequently maintained in an anaerobic state using this same anaerobic gas mixture. Anaerobicity of the chamber was confirmed daily using Oxoid anaerobic indicator strips that change color in the presence of oxygen. All culture media, assay plates, other reagents and plastic consumables were pre-reduced in the anaerobic chamber for at least 24-48 hours prior to contact with bacteria. […] Inocula were prepared by determining the optical density of each culture at 600 nM (OD600) in a Costar 3370 polystyrene 96-well flat-bottom assay plate using a Biotek Synergy 2 plate reader with Gen5 2.0 All-In-One Microplate Reader Software according to manufacturer's protocol, and diluting the cells to OD600 0.01 final in defined and semi-defined media that were prepared without sugars. […]

Molecules are shown by their SMILES.

For `OC[C@H]1O[C@@](CO)(O[C@H]2O[C@H](CO)[C@@H](O)[C@H](O)[C@H]2O)[C@@H](O)[C@@H]1O` [sucrose], the “Growth, DFO.36” value in assay [1] is reported as “− (<0.1)”. Besides, the “Growth, CSC.32” value in assay [2] is listed as “− (<0.1)”. Further, the “Growth, PDI.6” value in assay [3] was “++ (0.3-0.7)”. In addition, in assay [4], the “Growth, BTH.8” value is given as “+++ (>0.7)”. Also, the “Growth, DLO.76” value in assay [5] is listed as “+++ (>0.7)”. Also, the “Growth, BHA.20” value in assay [6] was “− (<0.1)”.
As to `OC[C@H]1O[C@@H](O[C@@H]2[C@@H](CO)OC(O)(CO)[C@H]2O)[C@H](O)[C@@H](O)[C@H]1O` (mixture of isomers) [lactulose], the “Growth, DFO.36” value in assay [1] is reported as “− (<0.1)”. Besides, the “Growth, CSC.32” value in assay [2] is “− (<0.1)”. In addition, the “Growth, PDI.6” value in assay [3] is “++ (0.3-0.7)”. Also, the “Growth, BTH.8” value in assay [4] was “+ (0.1-0.3)”. In addition, the “Growth, DLO.76” value in assay [5] is recorded as “− (<0.1)”. Moreover, in assay [6], the “Growth, BHA.20” value was “+++ (>0.7)”.
On to `OC[C@H]1O[C@H](OC[C@H]2O[C@H](O[C@]3(CO)O[C@H](CO)[C@@H](O)[C@@H]3O)[C@H](O)[C@@H](O)[C@@H]2O)[C@H](O)[C@@H](O)[C@H]1O` [raffinose], for which, in assay [1], the “Growth, DFO.36” value is given as “− (<0.1)”. Also, the “Growth, CSC.32” value in assay [2] is recorded as “− (<0.1)”. Moreover, the “Growth, PDI.6” value in assay [3] was “+++ (>0.7)”. Moreover, the “Growth, BTH.8” value in assay [4] is recorded as “− (<0.1)”. The “Growth, DLO.76” value in assay [5] is “− (<0.1)”. Further, in assay [6], the “Growth, BHA.20” value is on record as “++ (0.3-0.7)”.
